Measurements taken from US8969554B2, “6-acyl-1,2,4-triazine-3,5-dione derivative and herbicides” (Kumiai Chemical Industry Co., Ltd., priority 2010, dated 2015).

How the values were obtained:
Type in all cases: in vivo
Design in all cases: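 index 0 to 10 in 10% steps of herbicidal effect with 10 meaning complete death and 0 below 10%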
[1] = tested on: Monochoria vaginalis; assay: Herbicidal activity by paddy field soil treatment (Test Example 1); conditions: 1000 g of effective component per hectare, evaluated on day 21 after the treatment, criteria of Table 72
Procedure: (§1) Test for Determining Herbicidal Activity by Paddy Field Soil Treatment A 100 cm^2 wide plastic pot was filled with a paddy field soil and, after watering and shuffling, seeds of each of Echinochloa oryzicola, Monochoria vaginalis, and Scirpus juncoides Rocxb. were sowed and watered to a depth of 3 cm. On the next day, the wettable powder obtained in view of Formulation example 1 was diluted with water and applied on water surface. The application amount was 1000 g of effective component per hectare. After that, the plants were cultivated in a greenhouse, and on day 21 after the treatment, evaluation was made by the criteria of Table 72 for determining the herbicidal effects. [table]

[2] = tested on: Scirpus juncoides Rocxb.; assay: as above; conditions: applied on water surface, 1000 g of effective component per hectare, day 21 after the treatment
Procedure: as §1

[3] = tested on: A. retroflexus; assay: Herbicidal activity by field soil treatment (Test example 2); conditions: 1000 g effective component per hectare, day 21 after the treatment
Procedure: (§2) [table] Test for Determining Herbicidal Activity by Field Soil Treatment A 80 cm^2 wide plastic pot was filled with a field soil and seeds of each of Echinochloa crus-galli, foxtail, Indian millet, and A. retroflexus were sowed and then covered with soil. The wettable powder produced with reference to the Formulation example 1 was diluted water, and applied on the soil surface by using a small sprayer in an amount of 1000 liters per hectare so that the effective component is 1000 g per hectare. After that, the plants were cultivated in a greenhouse, and on day 21 after the treatment, evaluation was made by the criteria described in Table 72 for determining the herbicidal effects.

[4] = tested on: Indian millet; assay: as above; conditions: 1000 g effective component per hectare, day 21 after the treatment
Procedure: as §2

[5] = tested on: A. retroflexus; assay: Herbicidal activity by field foliage treatment (Test example 3); conditions: 1000 g effective component per hectare, day 14 after the treatment
Procedure: (§3) [table] Test for Determining Herbicidal Activity by Field Foliage Treatment A 80 cm^2 wide plastic pot was filled with a field soil and seeds of each of Indian millet and A. retroflexus were sowed and then incubated for 2 weeks in a green house. The wettable powder produced with reference to the Formulation example 1 was diluted water, and applied from the air to entire body of the plant as foliage treatment by using a small sprayer in an amount of 1000 liters per hectare so that the effective component is 1000 g per hectare. After that, the plants were cultivated in a greenhouse, and on day 14 after the treatment, evaluation was made by the criteria described in Table 72 for determining the herbicidal effects.

[6] = tested on: Indian millet; assay: as above; conditions: 1000 g effective component per hectare, day 14 after the treatment
Procedure: as §3

[7] = tested on: Echinochloa oryzicola; assay: Herbicidal activity by paddy field soil treatment (Test Example 1); conditions: 1000 g of effective component per hectare, evaluated on day 21 after the treatment, criteria of Table 72
Procedure: as §1

[8] = tested on: Echinochloa crus-galli; assay: Herbicidal activity by field foliage treatment (Test example 3); conditions: 1000 g effective component per hectare, day 14 after the treatment
Procedure: as §3, with “Test example 3” for “[table]”

[9] = tested on: Echinochloa crus-galli; assay: Herbicidal activity by field soil treatment (Test example 2); conditions: 1000 g effective component per hectare, day 21 after the treatment
Procedure: as §2

| Compound | Herbicidal effects index number, Monochoria vaginalis [1] | herbicidal effect index, S. juncoides Rocxb. [2] | herbicidal effect index, Amaranthus retroflexus [3] | herbicidal effect index, Abutilon theophrasti [4] | herbicidal effect index, Amaranthus retroflexus [5] | herbicidal effect index, Abutilon theophrasti [6] | Herbicidal effects index number, Echinochloa oryzicola [7] | herbicidal effect index, Echinochloa crus-galli [8] | herbicidal effect index, Echinochloa crus-galli [9] |
| --- | --- | --- | --- | --- | --- | --- | --- | --- | --- |
| CCc1ccc(-n2c(=O)c(C(=O)C3=C(O)CCCC3=O)nn(C)c2=O)nc1 [I-462] | 10 | 10 | 9 | 10 | 10 | 10 |  |  |  |
| CSc1c(Cl)cc(-n2c(=O)c(C(=O)C3=C(O)CCCC3=O)nn(C)c2=O)cc1Cl [I-300] | 10 | 10 | 10 | 10 | 10 | 8 | 10 | 9 |  |
| CCOc1ccc(-n2c(=O)c(C(=O)C3=C(O)CCCC3=O)nn(C)c2=O)cc1 [I-268] | 10 | 10 | 10 | 8 | 10 | 9 | 10 | 7 |  |
| CCCCCCn1c(=O)c(C(=O)C2=C(O)CCCC2=O)nn(C)c1=O [I-9] | 8 | 8 | 10 |  | 10 | 10 | 8 | 10 | 7 |
| CC(C)Cn1c(=O)c(C(=O)C2=C(O)CCCC2=O)nn(-c2ccccn2)c1=O [I-307] | 9 | 8 | 10 | 9 | 9 | 10 | 8 |  | 7 |
| Cc1cc(-n2c(=O)c(C(=O)C3=C(O)CCCC3=O)nn(C)c2=O)no1 [I-189] | 10 | 10 | 10 | 10 | 10 | 9 |  |  |  |
| COc1ccc(-n2c(=O)c(C(=O)C3=C(O)CCCC3=O)nn(C)c2=O)c(OC)c1 [I-96] | 10 | 10 | 10 | 10 | 10 | 9 | 8 | 7 |  |
| Cc1ccc(-n2c(=O)c(C(=O)O)nn(C)c2=O)nc1 [V-361] | 10 | 10 | 8 | 10 | 10 | 9 |  |  |  |
| Cn1nc(C(=O)C2=C(O)CCCC2=O)c(=O)n(-c2ccc3c(c2)OCO3)c1=O [I-170] | 10 | 10 | 10 | 10 | 10 | 10 | 10 | 10 |  |
| Cn1nc(C(=O)C2=C(O)CCCC2=O)c(=O)n(N2CCSCC2)c1=O [I-203] | 10 | 10 | 7 |  | 10 | 9 | 10 | 6 | 9 |
| Cc1ccc(-n2c(=O)c(C(=O)C3=C(O)CCCC3=O)nn(C)c2=S)nc1 [I-291] | 10 | 10 | 8 | 10 | 10 | 9 |  |  |  |
| Cc1ccc(-n2c(=O)c(C(=O)C3=C(O)CCCC3=O)nn(C)c2=O)c(F)c1 [I-108] | 10 | 10 | 10 | 8 | 10 | 9 | 10 |  |  |
| Cc1ccc(-n2c(=O)c(C(=O)C3=C(O)CCCC3=O)nn(C)c2=O)cc1 [I-59] | 10 | 10 | 10 | 10 | 10 | 10 | 10 | 7 |  |
| Cc1cnc(-n2c(=O)c(C(=O)C3=C(O)CCCC3=O)nn(C)c2=O)cn1 [I-292] | 10 | 10 |  | 9 | 10 | 10 | 10 | 8 | 7 |
| COc1cc(OC)cc(-n2c(=O)c(C(=O)C3=C(O)CCCC3=O)nn(C)c2=O)c1 [Compound I-94] | 10 | 10 | 10 | 10 | 10 | 10 |  |  |  |
| COc1ccc(-n2c(=O)c(C(=O)C3=C(O)CCCC3=O)nn(C)c2=O)nc1 [I-290] | 10 | 10 | 8 | 10 | 10 | 9 |  |  |  |
